According to patent publication US12590095B2, “Crystalline forms of an orally available, selective kit and PDGFR kinase inhibitor” (Sandoz AG, priority 2019, dated 2026):

What was measured:
Format in all cases: physicochemical
[1] = Gravimetric moisture sorption (GMS); conditions: for mass change during the sorption cycle: GMS, (25±0.1)° C.; for solid form by powder X-ray diffraction after the GMS experiment: after full sorption/desorption cycle 0-90% RH; for hygroscopicity: judged from GMS mass change
Procedure: Moisture sorption isotherms were recorded along with other samples with an SPSx-1μ moisture sorption analyzer (ProUmid, Ulm). The measurement cycle was started at ambient relative humidity (RH) of 25% (Form A) or 40% (Form B and Form Hy1). Relative humidity was then decreased to 5% in 5% steps, followed by a further decrease to 3% and to 0%. Afterwards RH was increased from 0% to 90% in a sorption cycle and decreased to 0% in a desorption cycle in 5% steps. Finally, the RH was increased to a relative humidity of 25% (Form A) or 40% (Form B and Form Hy1) in 5% steps. The time per step was set to a minimum of 2 hours and a maximum of 6 hours. If an equilibrium condition with a constant mass of +0.01% within 1 hour was reached before the maximum time for all examined samples the sequential humidity step was applied before the maximum time of 6 hours. If no equilibrium was achieved the consecutive humidity step was applied after the maximum time of 6 hours. The temperature was (25±0.1)° C.

[2] = Storage stability under various stress conditions, form checked by PXRD; conditions: 6 months
Text: Avapritinib Form A, Form B and hydrate Form Hy1 were each subjected to the various stress conditions listed in Table 8 for 6 months and the samples were investigated by powder X-ray diffraction.

[3] = Thermogravimetric analysis (TGA); conditions: for TGA mass loss: 10 K/min
Procedure: TGA was performed on a Mettler TGA/DSC 1 instrument. The samples (8.29 mg Form A, 8.11 mg Form B, 4.12 mg Form Hy1) were each weighed into a 100 microliter aluminum pan closed with an aluminum lid. The lid was automatically pierced at the beginning of the measurement. The samples were each heated from 25 to 250° C. at a rate of 10 K/min. Nitrogen (purge rate 50 mL/min) was used as purge gas.

[4] = Slurry experiments in aqueous isopropanol, form checked by PXRD; conditions: for form found by PXRD after slurry: aqueous isopropanol 3:1, 0° C.
Procedure: Form A and Form B of avapritinib were each slurried in aqueous isopropanol [4 mL, 3:1 (volume:volume)] at 0° C., 20° C. and 40° C., respectively. Samples were taken after 1 and 5 days and investigated by powder-X-ray diffraction.

mass change during the sorption cycle ([1]; 10-90% RH) | solid form by powder X-ray diffraction after the GMS experiment [1] | hygroscopicity [1] | form found by PXRD after stress test ([2]; 25° C./60% RH) | form found by PXRD after stress test ([2]; 30° C./65% RH) | form found by PXRD after stress test ([2]; 40° C./75% RH) | form found by PXRD after stress test ([2]; RT/97% RH) | TGA mass loss ([3]; from beginning of measurement until about 110° C.) | water corresponding to TGA mass loss ([3]; until about 110° C.) | mass change during the sorption cycle ([1]; 0-90% RH) | TGA mass loss ([3]; up to about 180° C.) | conversion in slurry experiments ([4]; 0° C.) | conversion in slurry experiments ([4]; 20° C. and 40° C., already after 1 day) | form found by PXRD after slurry ([4]; 1 day) | form found by PXRD after slurry ([4]; 5 days) | TGA mass loss ([3]; up to about 190° C.) | stability in slurry experiments ([4]; all applied conditions (0, 20, 40° C.; 1 and 5 days)) | thermodynamic relationship of Form A and Form B ([4]; from slurry experiments and DSC at 1 K/min) | SMILES
about 1.4 weight % | Form Hy1 | only slightly hygroscopic | Hy1 | Hy1 | Hy1 | Hy1 | 3.5 weight-% | approximately 1 mol equivalent | – | – | – | – | – | – | – | – | – | Cn1cc(-c2cc3c(N4CCN(c5ncc([C@@](C)(N)c6ccc(F)cc6)cn5)CC4)ncnn3c2)cn1 [Form Hy1]
– | Form B | only slightly hygroscopic | – | – | – | – | – | – | about 0.3 weight % | about 0.3 weight-% | partially converted to Form A | fully converted to Form A | B + A | A + B | – | – | – | Cn1cc(-c2cc3c(N4CCN(c5ncc([C@@](C)(N)c6ccc(F)cc6)cn5)CC4)ncnn3c2)cn1 [Form B, (1S)-1-(4-fluorophenyl)-1-(2-[4-[6-(1-methyl-1H-pyrazol-4-yl)pyrrolo[2,1-f][1,2,4]triazin-4-yl]piperazin-1-yl]pyrimidin-5-yl)ethan-1-amine]
– | Form A | non-hygroscopic | – | – | – | – | – | – | about 0.1 weight % | – | – | – | – | – | about 0.3 weight % | remained stable | the stable form below its melting point | Cn1cc(-c2cc3c(N4CCN(c5ncc([C@@](C)(N)c6ccc(F)cc6)cn5)CC4)ncnn3c2)cn1 [Form A, (1S)-1-(4-fluorophenyl)-1-(2-[4-[6-(1-methyl-1H-pyrazol-4-yl)pyrrolo[2,1-f][1,2,4]triazin-4-yl]piperazin-1-yl]pyrimidin-5-yl)ethan-1-amine]
